According to US20240294572A1, “Antimicrobial Peptides” (priority 2021, published 2024):
In brackets after ≈: the same amount, converted by molar mass. Non-standard residues stand in square brackets, D forms with d. Residues, ends and D or L forms follow the SMILES beside them. *: point of attachment. Decanoyl = CCCCCCCCCC(=O)*

Tests used:
P. aeruginosa PAO1 = type: cell-based
How it was run: (§1)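 Broth microdilution per CLSI M07-A10 with minor changes: 2-fold peptide dilutions plus log-phase bacteria (OD600 ~0.5) diluted to 0.001 OD, in TSB. Incubated overnight at 37 °C; growth read at 630 nm.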

[1] = system: clinical strains of S. aureus, including USA200, USA400, Newman, and Mu50; type: cell-based
How it was run: as §1

In vivo toxicity = assay: In vivo toxicity; set-up: species or system C57BL/6 mice
Procedure: Toxicity was assessed in female C57BL/6 mice by the intraperitoneal administration of increasing doses of the antimicrobial peptide C10-KR8d (10, 20, and 40 mg/kg) and a control group without peptide treatment. The animals were then observed for 5 days (twice a day). The number of moribund/dead animals for each of the doses was noted and plotted.
Mice were caged, fed, and environmentally adapted as described (Lakshmaia, et al. (2020) Proc. Natl. Acad. Sci., 117:19446-19454). All animal manipulations were performed in a class II laminar flow biological safety cabinet.

[2] = system: MCP-1, IL-17A, IL-10, TNF-α; assay: Cytokine quantification in tissues surrounding catheters; type: in vivo, mice; conditions: day 3 after peptide treatment
Procedure: The catheter-associated tissue homogenates/plasma samples stored at −80° C. were thawed to room temperature for the cytokines quantification using the BioLegend® individual mouse cytokine kit. The protocol for sample preparation and analysis was per the manufacturer manual. The samples were in duplicates with appropriate standards. The data are represented as mean±SD. Plots were generated using GraphPad prism 7, where * indicates p<0.05, **p<0.01, ***p<0.001, and NS means no significance (nonparametric, unpaired, Mann-Whitney test).

[3] = system: S. aureus USA300 transposon mutant SAUSA300_0647 (vraF); type: cell-based
Procedure: (§2) The antimicrobial susceptibility of over 20 MRSA transposon mutants were also tested, based on a transposon library screening, in the presence of LL-37 peptides (Golla, et al. (2020) ACS Infect. Dis., 6:1866-1881). This Nebraska Transposon Mutant Library of S. aureus USA300 consists of 1920 mutants, each with one nonessential gene disabled due to a transposon insertion (Fey, et al. (2013) mBio 4:e00537-12). The correct insertion of the transposon to each Staph mutant had been verified (Golla, et al. (2020) ACS Infect. Dis., 6:1866-1881). Antimicrobial susceptibility to the new peptide C10-KR8d was evaluated in the same manner as MIC assays. Susceptible strains could be inhibited at a peptide concentration lower than the MIC against the wild strain S. aureus JE2.

[4] = system: S. aureus JE2 (SAUSA300, wild type); type: cell-based; conditions: JE2 (SA, wild type)
Procedure: as §2

[5] = system: S. aureus USA300 transposon mutant SAUSA300_1036; type: cell-based
Procedure: as §2

[6] = system: S. aureus USA300 transposon mutant SAUSA300_1962; type: cell-based
Procedure: as §2

[7] = system: S. aureus USA300 transposon mutant SAUSA300_1228 (thrB); type: cell-based
Procedure: as §2

[8] = system: S. aureus USA300 transposon mutant SAUSA300_1515; type: cell-based
Procedure: as §2

## CCCCCCCCCC(=O)N[C@@H](CCCCN)C(=O)N[C@@H](CCCNC(=N)N)C(=O)N[C@H](C(=O)N[C@@H](Cc1c[nH]c2ccccc12)C(=O)N[C@@H](CCC(N)=O)C(=O)N[C@@H](CCCNC(=N)N)C(=O)N[C@H](C(=O)N[C@@H](CCCCN)C(N)=O)[C@@H](C)CC)[C@@H](C)CC [Peptide C10-KR8] (Decanoyl-KRIWQRIK-NH2)
P. aeruginosa PAO1
  MIC (μM) PA: 6.2 µM (≈ 7.94 µg/mL)
[1]
  MIC against clinical strains of S. aureus: 1.6 to 6.2 µM

## CCCCCCCCCC(=O)N[C@H](CCCCN)C(=O)N[C@H](CCCNC(=N)N)C(=O)N[C@@H](C(=O)N[C@H](Cc1c[nH]c2ccccc12)C(=O)N[C@H](CCC(N)=O)C(=O)N[C@H](CCCNC(=N)N)C(=O)N[C@@H](C(=O)N[C@H](CCCCN)C(N)=O)[C@H](C)CC)[C@H](C)CC [Peptide C10-KR8d] (Decanoyl-[dK][dR][dI][dW][dQ][dR][dI][dK]-NH2)
In vivo toxicity; female, C57BL/6, mouse, in vivo, ip, C57BL/6 mice, read-out: maximal tolerated dose (MTD)
  MTD at 5 days: ≥ 20 mg/kg
In vivo toxicity; i.p. 40 mg/kg
  survival of mice: all mice died in a day
In vivo toxicity; i.p. 10 or 20 mg/kg, 5 days observation
  survival of mice: all mice survived
[2]
  level of IL-10 in surrounding tissues of catheters: decrease
  level of IL-17A in surrounding tissues of catheters: up-regulation
  level of MCP-1/CCL2 in surrounding tissues of catheters: up-regulation
  level of TNFα in surrounding tissues of catheters: decrease
[3]; mutant SAUSA300_0647 vraF versus WT
  Susceptible?: Yes
[3]; mutant SAUSA300_0647 vraF, 50% TSB
  MIC: 1.6 to 3.1 µM
[4]
  MIC: 3.1 µM (≈ 3.97 µg/mL)
[5]; mutant SAUSA300_1036, 50% TSB
  MIC: 1.6 to 3.1 µM
[5]; mutant SAUSA300_1036 versus WT
  Susceptible?: Yes
[6]; mutant SAUSA300_1962, 50% TSB
  MIC: 1.6 to 3.1 µM
[6]; mutant SAUSA300_1962 versus WT
  Susceptible?: Yes
[7]; mutant SAUSA300_1228 thrB versus WT
  Susceptible?: Yes
[7]; mutant SAUSA300_1228 thrB, 50% TSB
  MIC: 1.6 to 3.1 µM
[8]; mutant SAUSA300_1515, 50% TSB
  MIC: 1.6 to 3.1 µM
[8]; mutant SAUSA300_1515 versus WT
  Susceptible?: Yes
